In patent publication US11208412B2 (DAEGU-GYEONGBUK MEDICAL INNOVATION FOUNDATION, priority 2017, dated 2021):

Experiments:
Assay in all cases: Kinase selectivity, DiscoverX scanMAX Kinase assay panel (% control)
Type in all cases: binding
[1] = biological target: T1, kinases of the scanMAX Kinase assay panel (Homo sapiens, UniProt P22607, G697C); conditions: FGFR3(G697C); 1 uM
T1 construct: purchased DiscoverX Co. (contract measurement) scanMAX Kinase assay panel
Method in brief: (§1)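 Read-out is % control, normalised so a positive-control compound sits at 0% and DMSO at 100%: (test − positive)/(negative − positive)×100. Each kinase received the compound at 1 uM in DMSO. A value below 35% counts as activity.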

[2] = biological target: T2, kinases of the scanMAX Kinase assay panel (Homo sapiens, UniProt P42336, E542K); conditions: PIK3CA(E542K); 1 uM
T2 construct: purchased DiscoverX Co. (contract measurement) scanMAX Kinase assay panel
Method in brief: as §1

[3] = biological target: T3, kinases of the scanMAX Kinase assay panel (Homo sapiens, UniProt P43405); conditions: kinase SYK; 1 uM in DMSO
T3 construct: purchased DiscoverX Co. (contract measurement) scanMAX Kinase assay panel
Method in brief: as §1

[4] = biological target: T4, kinases of the scanMAX Kinase assay panel (Homo sapiens, UniProt Q04912); conditions: MST1R; 1 uM
T4 construct: purchased DiscoverX Co. (contract measurement) scanMAX Kinase assay panel
Method in brief: as §1

[5] = biological target: T5, kinases of the scanMAX Kinase assay panel (Homo sapiens, UniProt Q6ZWH5); conditions: NEK10; 1 uM
T5 construct: purchased DiscoverX Co. (contract measurement) scanMAX Kinase assay panel
T5 sequence (Q6ZWH5 1-1172): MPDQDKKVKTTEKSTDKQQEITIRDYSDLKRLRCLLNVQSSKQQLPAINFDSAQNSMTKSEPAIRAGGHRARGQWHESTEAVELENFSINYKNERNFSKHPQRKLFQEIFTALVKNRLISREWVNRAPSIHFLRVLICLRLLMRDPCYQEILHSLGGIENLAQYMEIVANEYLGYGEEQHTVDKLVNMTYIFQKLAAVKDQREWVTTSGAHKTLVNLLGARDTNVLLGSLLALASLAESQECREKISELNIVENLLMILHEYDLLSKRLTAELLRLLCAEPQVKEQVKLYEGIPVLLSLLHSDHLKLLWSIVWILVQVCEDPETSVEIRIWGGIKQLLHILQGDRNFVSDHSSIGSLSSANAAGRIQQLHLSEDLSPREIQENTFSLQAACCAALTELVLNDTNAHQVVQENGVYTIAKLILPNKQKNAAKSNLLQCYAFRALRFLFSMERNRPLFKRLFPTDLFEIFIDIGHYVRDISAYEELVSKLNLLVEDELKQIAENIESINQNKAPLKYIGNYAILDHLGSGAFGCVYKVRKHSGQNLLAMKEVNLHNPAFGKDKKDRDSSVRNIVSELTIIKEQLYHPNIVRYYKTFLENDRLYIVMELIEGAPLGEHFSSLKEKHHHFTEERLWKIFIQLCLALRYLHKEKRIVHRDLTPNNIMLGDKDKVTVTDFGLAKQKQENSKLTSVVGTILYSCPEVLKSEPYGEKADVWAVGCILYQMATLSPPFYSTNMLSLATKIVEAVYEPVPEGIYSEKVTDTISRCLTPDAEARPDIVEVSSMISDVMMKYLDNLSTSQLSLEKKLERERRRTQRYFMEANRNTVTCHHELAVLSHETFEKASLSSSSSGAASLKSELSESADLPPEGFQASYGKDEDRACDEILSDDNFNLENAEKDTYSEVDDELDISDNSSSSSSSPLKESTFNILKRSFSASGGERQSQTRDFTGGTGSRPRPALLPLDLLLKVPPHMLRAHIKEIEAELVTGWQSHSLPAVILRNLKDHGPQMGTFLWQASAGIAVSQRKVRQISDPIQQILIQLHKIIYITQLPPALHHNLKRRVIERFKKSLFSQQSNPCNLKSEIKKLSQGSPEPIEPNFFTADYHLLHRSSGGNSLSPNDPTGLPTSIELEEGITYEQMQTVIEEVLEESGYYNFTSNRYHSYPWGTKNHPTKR
Method in brief: as §1

[6] = biological target: T6, kinases of the scanMAX Kinase assay panel (Homo sapiens, UniProt Q8IWQ3); conditions: BRSK2; 1 uM
T6 construct: purchased DiscoverX Co. (contract measurement) scanMAX Kinase assay panel
T6 sequence (Q8IWQ3 1-736): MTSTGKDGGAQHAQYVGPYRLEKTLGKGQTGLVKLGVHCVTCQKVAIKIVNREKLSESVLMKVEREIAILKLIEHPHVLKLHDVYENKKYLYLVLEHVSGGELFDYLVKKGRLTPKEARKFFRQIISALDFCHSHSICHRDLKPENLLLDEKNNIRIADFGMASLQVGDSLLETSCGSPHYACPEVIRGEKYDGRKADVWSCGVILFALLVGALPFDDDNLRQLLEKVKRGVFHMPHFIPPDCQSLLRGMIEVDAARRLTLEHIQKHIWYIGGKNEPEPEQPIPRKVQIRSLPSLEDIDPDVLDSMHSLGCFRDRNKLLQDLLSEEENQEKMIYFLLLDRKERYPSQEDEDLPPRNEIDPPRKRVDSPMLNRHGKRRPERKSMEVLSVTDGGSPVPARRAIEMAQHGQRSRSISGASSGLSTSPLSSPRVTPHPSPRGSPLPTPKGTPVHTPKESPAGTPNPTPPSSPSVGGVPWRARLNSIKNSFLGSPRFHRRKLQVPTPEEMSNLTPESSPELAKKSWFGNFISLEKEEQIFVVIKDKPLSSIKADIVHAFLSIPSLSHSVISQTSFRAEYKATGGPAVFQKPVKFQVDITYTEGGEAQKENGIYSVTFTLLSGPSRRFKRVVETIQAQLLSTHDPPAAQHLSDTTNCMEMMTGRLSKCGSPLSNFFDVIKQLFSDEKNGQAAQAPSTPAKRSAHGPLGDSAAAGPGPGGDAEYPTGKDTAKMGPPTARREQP
Method in brief: as §1

[7] = biological target: T7, kinases of the scanMAX Kinase assay panel (Homo sapiens, UniProt Q99755); conditions: PIP5K1A; 1 uM
T7 construct: purchased DiscoverX Co. (contract measurement) scanMAX Kinase assay panel
Method in brief: as §1

[8] = biological target: T8, kinases of the scanMAX Kinase assay panel (Homo sapiens, UniProt Q9BYP7); conditions: kinase WNK3; 1 uM in DMSO
T8 construct: purchased DiscoverX Co. (contract measurement) scanMAX Kinase assay panel
Method in brief: as §1

T2 sequence (P42336 whole entry E542K): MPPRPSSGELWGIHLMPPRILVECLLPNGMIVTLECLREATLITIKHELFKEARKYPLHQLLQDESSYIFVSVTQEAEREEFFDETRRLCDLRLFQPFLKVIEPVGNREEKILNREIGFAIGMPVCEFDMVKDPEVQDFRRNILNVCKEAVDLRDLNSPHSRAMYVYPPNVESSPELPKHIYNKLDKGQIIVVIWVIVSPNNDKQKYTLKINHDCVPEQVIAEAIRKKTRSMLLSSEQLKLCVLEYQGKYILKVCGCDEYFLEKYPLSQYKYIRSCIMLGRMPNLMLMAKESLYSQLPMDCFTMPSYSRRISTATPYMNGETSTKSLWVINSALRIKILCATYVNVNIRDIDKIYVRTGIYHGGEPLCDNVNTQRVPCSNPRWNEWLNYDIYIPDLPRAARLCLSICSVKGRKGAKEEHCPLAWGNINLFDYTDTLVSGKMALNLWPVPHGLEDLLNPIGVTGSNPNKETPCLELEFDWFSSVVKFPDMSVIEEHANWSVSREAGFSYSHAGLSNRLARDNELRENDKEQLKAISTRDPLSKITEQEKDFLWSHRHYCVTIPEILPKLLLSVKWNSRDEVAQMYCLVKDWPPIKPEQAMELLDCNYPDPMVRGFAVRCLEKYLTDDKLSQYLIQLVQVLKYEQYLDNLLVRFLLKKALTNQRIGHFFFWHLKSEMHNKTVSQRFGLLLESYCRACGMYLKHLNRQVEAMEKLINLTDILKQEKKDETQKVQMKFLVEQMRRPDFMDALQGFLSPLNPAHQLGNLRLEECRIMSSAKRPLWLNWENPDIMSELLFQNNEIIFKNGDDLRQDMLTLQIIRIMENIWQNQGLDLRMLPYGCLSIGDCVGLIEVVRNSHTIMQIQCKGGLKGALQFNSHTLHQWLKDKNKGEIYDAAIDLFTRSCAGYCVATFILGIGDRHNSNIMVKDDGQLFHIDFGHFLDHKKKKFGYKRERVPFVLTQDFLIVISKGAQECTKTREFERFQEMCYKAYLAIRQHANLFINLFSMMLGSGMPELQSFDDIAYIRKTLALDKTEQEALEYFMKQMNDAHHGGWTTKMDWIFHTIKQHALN
T7 sequence (Q99755 whole entry): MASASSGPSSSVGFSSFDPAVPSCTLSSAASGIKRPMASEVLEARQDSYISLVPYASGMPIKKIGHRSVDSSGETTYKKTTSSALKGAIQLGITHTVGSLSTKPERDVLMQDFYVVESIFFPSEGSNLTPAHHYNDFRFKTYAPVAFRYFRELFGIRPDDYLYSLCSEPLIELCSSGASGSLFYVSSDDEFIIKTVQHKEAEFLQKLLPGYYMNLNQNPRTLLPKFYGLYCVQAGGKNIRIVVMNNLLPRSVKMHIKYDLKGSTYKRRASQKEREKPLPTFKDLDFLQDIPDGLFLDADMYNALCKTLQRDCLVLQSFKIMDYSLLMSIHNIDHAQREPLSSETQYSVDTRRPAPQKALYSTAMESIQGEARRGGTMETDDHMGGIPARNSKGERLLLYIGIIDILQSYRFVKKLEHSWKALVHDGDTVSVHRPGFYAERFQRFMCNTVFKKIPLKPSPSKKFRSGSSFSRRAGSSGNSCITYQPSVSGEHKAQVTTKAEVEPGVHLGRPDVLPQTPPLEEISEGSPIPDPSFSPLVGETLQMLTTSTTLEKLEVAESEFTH
T8 sequence (Q9BYP7 whole entry): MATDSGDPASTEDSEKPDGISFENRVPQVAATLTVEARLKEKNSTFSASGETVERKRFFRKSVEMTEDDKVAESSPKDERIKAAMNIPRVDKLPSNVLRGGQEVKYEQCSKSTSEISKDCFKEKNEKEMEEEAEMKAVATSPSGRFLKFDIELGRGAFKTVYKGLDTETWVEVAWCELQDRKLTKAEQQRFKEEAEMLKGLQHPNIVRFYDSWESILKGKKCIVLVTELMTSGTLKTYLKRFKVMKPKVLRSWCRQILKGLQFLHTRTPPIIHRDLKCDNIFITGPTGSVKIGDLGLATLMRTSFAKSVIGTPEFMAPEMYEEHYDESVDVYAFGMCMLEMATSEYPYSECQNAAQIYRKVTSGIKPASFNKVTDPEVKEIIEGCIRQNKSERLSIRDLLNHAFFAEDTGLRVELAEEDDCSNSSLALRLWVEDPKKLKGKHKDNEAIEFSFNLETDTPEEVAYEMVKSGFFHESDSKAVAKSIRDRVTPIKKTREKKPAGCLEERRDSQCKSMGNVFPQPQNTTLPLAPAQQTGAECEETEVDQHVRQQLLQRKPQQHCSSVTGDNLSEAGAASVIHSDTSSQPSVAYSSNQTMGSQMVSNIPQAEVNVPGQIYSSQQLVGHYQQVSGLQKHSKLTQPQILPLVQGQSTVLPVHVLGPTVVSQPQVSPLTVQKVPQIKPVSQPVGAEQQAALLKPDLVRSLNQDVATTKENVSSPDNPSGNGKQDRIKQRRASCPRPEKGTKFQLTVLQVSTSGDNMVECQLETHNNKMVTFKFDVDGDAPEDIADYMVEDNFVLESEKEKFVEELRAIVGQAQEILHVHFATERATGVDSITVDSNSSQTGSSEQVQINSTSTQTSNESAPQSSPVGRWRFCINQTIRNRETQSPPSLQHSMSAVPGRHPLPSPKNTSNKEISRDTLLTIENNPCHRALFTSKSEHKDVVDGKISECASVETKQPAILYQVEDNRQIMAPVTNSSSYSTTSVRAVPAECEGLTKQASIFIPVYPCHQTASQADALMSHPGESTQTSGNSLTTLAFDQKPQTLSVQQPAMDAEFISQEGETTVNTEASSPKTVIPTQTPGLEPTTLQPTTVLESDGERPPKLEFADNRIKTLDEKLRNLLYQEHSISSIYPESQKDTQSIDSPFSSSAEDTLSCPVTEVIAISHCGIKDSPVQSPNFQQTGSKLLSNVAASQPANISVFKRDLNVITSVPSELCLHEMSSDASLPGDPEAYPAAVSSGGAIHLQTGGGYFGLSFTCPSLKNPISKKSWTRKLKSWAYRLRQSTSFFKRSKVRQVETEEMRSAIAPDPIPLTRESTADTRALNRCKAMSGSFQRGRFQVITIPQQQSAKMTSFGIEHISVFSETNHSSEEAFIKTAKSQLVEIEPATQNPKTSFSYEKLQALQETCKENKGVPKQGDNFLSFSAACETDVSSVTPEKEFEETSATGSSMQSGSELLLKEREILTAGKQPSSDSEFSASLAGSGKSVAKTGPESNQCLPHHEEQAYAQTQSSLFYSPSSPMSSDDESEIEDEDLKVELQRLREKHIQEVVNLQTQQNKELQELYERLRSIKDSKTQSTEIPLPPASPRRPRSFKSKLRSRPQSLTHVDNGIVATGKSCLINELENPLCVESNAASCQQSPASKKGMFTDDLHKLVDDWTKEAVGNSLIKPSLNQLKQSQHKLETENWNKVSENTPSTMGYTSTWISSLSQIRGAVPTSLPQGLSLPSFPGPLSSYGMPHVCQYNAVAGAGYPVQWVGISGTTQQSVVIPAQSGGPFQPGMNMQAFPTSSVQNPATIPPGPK
T1 sequence (P22607 23-806 G697C): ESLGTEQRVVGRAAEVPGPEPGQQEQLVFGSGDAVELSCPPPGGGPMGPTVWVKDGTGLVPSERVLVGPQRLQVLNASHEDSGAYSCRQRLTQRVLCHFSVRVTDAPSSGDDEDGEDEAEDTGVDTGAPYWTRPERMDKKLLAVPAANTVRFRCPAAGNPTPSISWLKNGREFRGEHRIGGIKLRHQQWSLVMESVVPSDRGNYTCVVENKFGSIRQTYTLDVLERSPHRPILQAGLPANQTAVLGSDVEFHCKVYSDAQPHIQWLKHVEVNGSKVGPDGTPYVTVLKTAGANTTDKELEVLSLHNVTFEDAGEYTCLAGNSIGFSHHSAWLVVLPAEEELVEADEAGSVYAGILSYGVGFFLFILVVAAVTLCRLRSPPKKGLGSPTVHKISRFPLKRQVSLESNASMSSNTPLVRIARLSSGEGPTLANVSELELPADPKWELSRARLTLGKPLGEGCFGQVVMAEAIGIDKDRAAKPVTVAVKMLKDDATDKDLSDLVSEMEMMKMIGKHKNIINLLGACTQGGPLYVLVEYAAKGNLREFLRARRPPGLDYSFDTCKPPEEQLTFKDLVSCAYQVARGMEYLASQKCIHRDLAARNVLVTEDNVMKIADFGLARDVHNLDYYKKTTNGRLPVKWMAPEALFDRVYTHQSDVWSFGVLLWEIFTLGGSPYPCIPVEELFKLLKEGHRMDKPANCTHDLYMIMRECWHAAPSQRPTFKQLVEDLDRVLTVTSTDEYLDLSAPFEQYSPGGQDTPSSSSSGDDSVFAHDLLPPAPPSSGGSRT

Row | Compound | remaining binding at 1 µM [1] [%] | remaining binding at 1 µM [2] [%] | remaining binding at 1 µM [3] [%] | remaining binding at 1 µM [4] [%] | remaining binding at 1 µM [5] [%] | remaining binding at 1 µM [6] [%] | remaining binding at 1 µM [7] [%] | remaining binding at 1 µM [8] [%]
1 | CNc1nc(Nc2ccc(C(=O)N3CCOCC3)cc2OC)nc2[nH]cc(C#N)c12 [Example 1, 2-((2-methoxy-4-(morpholine-4-carbonyl)phenyl)amino)-4-(methylamino)-7H-pyrrolo[2,3-d]pyrimidine-5-carbonitrile] | 97 | 74 | 62 | 88 | 53 | 89 | 99 | 68
2 | CC1(Nc2nc(Nc3cnn([C@H]4CCN(C5COC5)C[C@@H]4F)c3Cl)nc3[nH]cc(C#N)c23)CC1 [Example 52, 2-((5-chloro-1-((3S,4S)-3-fluoro-1-(oxetane-3-yl)piperidine-4-yl)-1H-pyrazole-4-yl)amino)((1-methylcyclopropyl)amino)-7H-pyrrolo[2,3-d]pyrimidine-5-carbonitrile] | 11 | 77 | 0.4 | 78 | 0.95 | 70 | 2.5 | 55
3 | CCNc1nc(Nc2ccc(C(=O)N3CCC(N4CCOCC4)CC3)cc2OC)nc2[nH]cc(C(F)(F)F)c12 [Example 104, (4-((4-(ethylamino)-5-(trifluoromethyl)-7H-pyrrolo[2,3-d]pyrimidine-2-yl)amino)-3-methoxyphenyl)(4-morpholinopiperidine-1-yl)methanone] | 100 | 83 | 70 | 95 | 100 | 100 | 100 | 100
